Test results reported in US20240197812A1, “Methods of Treating Cardiac Injury” (Proletariat Therapeutics, Inc., priority 2022, published 2024).

Test system: critically ill patients with vasodilatory shock
Experiment: Prospective observational study: safety (thromboembolic events, serum troponin elevation)
Format: in vivo
Conditions: for Elevated serum troponin - %: troponin I level ≥20 ng/L
Description: A prospective observational study was conducted to evaluate the efficacy, safety feasibility of using angiotensin II as a primary vasopressor for treatment of critically ill patients with vasodilatory shock.
Study Population: A total of 40 patients receiving angiotensin II were matched to 80 control patients who received conventional vasopressors (norepinephrine, vasopressin, metaraminol, epinephrine, or combinations thereof). […] The mean patient age was 63 years (SD 14 years), two-thirds of patients were male, and the median APACHE III score was 65 (IQR 49 to 80). There were no significant differences between groups in terms of demographics, clinical characteristics, illness severity, baseline vasopressor type and dose, physiological parameters, or biochemistry.
Vasodilatory shock was defined by a mean arterial pressure <65 mmHg in the presence of sufficient volume resuscitation and preserved cardiac output, based on either a cardiac index ≥2.3 L/min/m^2, a central venous oxygen saturation ≥70%, or clinician judgement. Patients were excluded if they had kidney failure (i.e., chronic hemodialysis, peritoneal dialysis or a baseline estimated glomerular filtration rate <15 mL/min/1.73 m^2) or were diagnosed with arterial (acute coronary syndrome, ischemic stroke, or mesenteric ischemia) or venous thrombosis (deep vein thrombosis or pulmonary embolism) within the preceding 6 months. […] The mean patient age was 63 (SD 14) years, two-thirds of patients were male, and the median APACHE III score was 65 (IQR 49 to 80). There were no significant differences between the angiotensin II group and the conventional vasopressor group in terms of demographics, clinical characteristics, illness severity, vasopressor type and use, physiological parameters, or biochemistry.
Intervention: Infusions of angiotensin II were initiated to deliver a dose between 5 and 10 ng/kg/min. The dose was adjusted every 5 minutes according to a protocolized titration scheme to achieve a mean arterial pressure (MAP) of ≥65 mmHg (dose range 1.25 to 40 ng/kg/min). During the adjustment period, infusions of other vasopressor agents were weaned and discontinued where possible. Where the MAP was inadequate despite the maximum dose of angiotensin II, additional vasopressor agents were prescribed at the discretion of the clinician. The use of vasopressin (dose range 0.01 to 0.04 IU/min) was preferred over the use of norepinephrine (dose range 0 to 40 mcg/min). Angiotensin II was continued until resolution of shock, death, or for a maximum of 7 days. If ongoing vasopressor therapy was required after this time, norepinephrine was utilized.
Control: The control arm included critically ill patients with vasodilatory shock who received conventional vasopressors. To address confounding by indication and other sources of bias arising from the use of non-randomized data, a propensity score was estimated for the likelihood of treatment with angiotensin II to match patients in the intervention arm to their nearest neighbor in the control arm using a 1:2 ratio without replacement. Propensity scores were generated based on age, sex, APACHE II score, serum creatinine level, vasopressor type and dose at enrollment, and time from ICU admission and initiation of any vasopressor to initiation of angiotensin II.
Secondary Outcomes: Secondary renal outcomes included new or progressive AKI, creatinine trajectory, the requirement for CRRT, time to CRRT liberation, and the development of a major adverse kidney event at day 7 (MAKE7). New AKI was defined and staged according to the Kidney Disease Improving Global Outcomes (KDIGO) criteria as a rise in serum creatinine of ≥26.5 μmol/L in 48 hours or as a ≥50% increase in serum creatinine from baseline within 7 days. Progressive AKI was defined as an increase in AKI severity by at least one KDIGO stage. MAKE7 was a composite of death, dialysis dependence, and a persistent 50% increase in serum creatinine level. […]

CC[C@H](C)[C@H](NC(=O)[C@H](Cc1ccc(O)cc1)NC(=O)[C@@H](NC(=O)[C@H](CCCNC(=N)N)NC(=O)[C@@H](N)CC(=O)O)C(C)C)C(=O)N[C@@H](Cc1cnc[nH]1)C(=O)N1CCC[C@H]1C(=O)N[C@@H](Cc1ccccc1)C(=O)O [Angiotensin II, Asp-Arg-Val-Tyr-Ile-His-Pro-Phe]
Deep vein thrombosis - % (in vivo): (5) % | Pulmonary embolus - % (in vivo): (10) % | Deep vein thrombosis - no. (number of patients): 2 | Pulmonary embolus - no. (number of patients): 4 | Elevated serum troponin - %: (8) % | Elevated serum troponin - % (listed as angiotensin II): 8%
